Results taken from paper PMC10449632, “Structural basis for translation inhibition by the glycosylated drosocin peptide” (Nature Chemical Biology, 2023).
No end group written: not given here. *: point of attachment. αGalNAc = CC(=O)N[C@@H]1[C@@H](O)[C@@H](O)[C@@H](CO)O[C@@H]1*

Columns and labels:
[1] = test system: ribosomes at the stop codon of MLIF-UAA mRNA in the presence of RF2; assay: Toeprinting assay on MLIF*-mRNA with RF2; format: biochemical, Escherichia coli; conditions: Fig 1h, RF2 (10X), 30 μM compound, plotted values
Protocol: (§1) To ascertain which step during protein synthesis is affected by drosocin, we performed toeprinting assays, where reverse transcription is used to monitor the position of ribosomes on a defined mRNA[34].
(§2) Toeprinting reactions were performed as described previously. In brief, reactions were performed with 6 μl of PURExpress ΔRF123 in vitro protein synthesis system (NEB) in the presence of 1× RF3 and either 1× or 10× of RF1 or RF2 (relative to the manufacturer’s recommendation). The reactions were carried out on an MLIF-UAA-toeprint template (5′-[…]-3′, ORF start codon and stop codon are underlined bold), containing T7 promoter, a ribosome binding site, an MLIF-coding ORF and the NV1* primer binding site. The template is a version of the ErmBL template with a truncated ORF and addition of a isoleucine coding codon at the third position in the ORF. The template was generated by polymerase chain reaction of two overlapping 77-nt- and 78-nt-long primers. The reactions contained 30 ng of the MLIF-UAA-toeprint DNA template. The reactions were supplemented with Api137, thiostrepton or one of the drosocin derivates as specified. The transcription–translation reactions were incubated for 15 minutes at 37 °C. The reverse transcription on the MLIF-short-UAA toeprint template was carried out using AMV RT and primer NV*1-Alexa 647 (5′-[…]-3′). The transcription–translation reactions were incubated with AMV RT and NV*1-Alexa 647 for 20 minutes at 37 °C. mRNA degradation was carried out by the addition of 1 µl of 5 M NaOH. The reactions were neutralized with 0.7 µl of 25% HCl, and nucleotide removal was performed with the QIAquick Nucleotide Removal Kit (Qiagen). The samples were dried under vacuum for 2 hours at 60 °C for subsequent gel electrophoresis. The 6% acrylamide gels were scanned on a Typhoon scanner (GE Healthcare).

[2] = test system: ribosomes at the stop codon of MLIF-UAA mRNA in the presence of RF1; assay: Toeprinting assay on MLIF*-mRNA with RF1; format: biochemical, Escherichia coli; conditions: for Relative stop band intensity signal: 30 μM compound, MLIF*-mRNA, plotted values; for stalling of ribosomes at the stop codon: toeprinting, 30 μM peptide, 1× or 10× RF1 (trend also with ten-fold RF2)
Protocol: as §1, §2

[3] = test system: E. coli SQ110 A2059G; assay: Antibiotic susceptibility (growth) assay, E. coli SQ110 A2059G; format: cell-based, Escherichia coli; conditions: A2059G mutation; LB medium; 5, 10, 30 μM
Excerpt: (§3) Strains E. coli Keio wild-type and E. coli Keio ΔsbmA used from the Keio knockout collection (Horizon, https://horizondiscovery.com). Wild-type E. coli SQ110 (ΔrrnGADBHC(ptRNA67))[47] and SQ171 (ΔrrnGADEHBC(pKK3535, ptRNA67))[47] strains and related mutants E. coli SQ110 A2059G and E. coli SQ171 A2503G were obtained from the previous Api137 study. E. coli strains SQ171 bearing A752G, U2609C and A752G:U2609C mutations[43] and E. coli SQ171 U2609G[48] were generated previously.
(§4) The susceptibility of E. coli strains to compounds was evaluated by monitoring the bacterial growth in presence of increasing concentrations of the compound of interest. […] Values measured from wells containing just the medium were used as a blank. The growth in each well was monitored by measuring the OD600 every 10 minutes for a total of 20 hours at 37 °C with shaking using a plate reader (Tecan Infinite 200 PRO). The inhibition resulting from a compound’s concentration was evaluated by normalizing the OD600 at t = 12 hours (corresponding to the end of the log phase) from the treated culture to the untreated one. […] For each concentration, the standard deviation was calculated, taking into account each single replica and its specific technical error from the plate reader.

[4] = test system: E. coli SQ171 A2503G; assay: Antibiotic susceptibility (growth) assay, E. coli SQ171 A2503G; format: cell-based, Escherichia coli; conditions: A2503G mutation; LB medium; 5, 10, 30 μM
Excerpt: as §3, §4

Row | Substance | Relative stop band intensity signal [1] | Relative stop band intensity signal ([2]; Fig 1f, RF1 (1X)) | Relative stop band intensity signal ([2]; Fig 1g, RF1 (10X)) | stalling of ribosomes at the stop codon [2] | resistance of mutant compared to the wild-type strain [3] | resistance of mutant compared to the wild-type strain [4]
1 | Dro1: naturally occurring drosocin carrying monosaccharide α-D-GalNAc attached to Thr11 (GKPRPYSPRPT(αGalNAc)SHPRPIRV; UniProt P36193 22-40, looked up) | 0.1899 | 0.3782 | 0.6764 | strongest stalling | more resistant | more resistant
2 | Dro: unmodified drosocin, 19 amino acid proline-rich antimicrobial peptide lacking O-glycosylation (GKPRPYSPRPTSHPRPIRV; Drosocin; UniProt P36193 22-40, looked up) | 0.1232 | 0.2211 | 0.4823 | good activity |  | 
